The subject of series [1] is secretions of fMLF stimulated human granulocytes. In words: Gelatinolysis in secretions of fMLF stimulated human granulocytes. Type of series: biochemical. The note with it: in the presence of 20 µM neutrophil elastase inhibitor; for inhibition of metalloproteinase-derived gelatinolytic signal: highest dose of 100 µM. The method, then: To determine the inhibition of gelatinolytic activity, we used a previously optimized gelatin degradation assay. Activated MMP-9, activated MMP-2, neutrophil elastase or supernatants of stimulated neutrophils, were incubated with different concentrations of inhibitors and incubated for 30 min at 37 °C. Next, dye-quenched gelatin (DQ™-gelatin, Invitrogen, Carlsbad, CA, USA) was added at a final concentration of 2.5 µg/mL and the increase in fluorescence over time was measured with the CLARIOstar microplate reader (BMG Labtech, Ortenberg, Germany). For other MMPs, the OmniMMP substrate peptide (Mca-PLGL-Dpa-AR-NH2, cat. no. BML-P126-0001, Enzo Life Sciences, Farmingdale, NY, USA) was used at a final concentration of 2.5 µg/mL. For ADAM17 the fluorogenic peptide Mca-PLAQAV-Dpa-RSSSR-NH2 (ES003, R & D systems, Minneapolis, MO, USA) and for neutrophil elastase the fluorogenic substrate MeOSuc-AAPV-AMC (cat. no. 324740, Merck Millipore, Darmstadt, Germany) were used. Proteolytic activity was determined by linear regression of the fluorescence curve and the percentage inhibition was calculated through comparison with the positive control (no inhibitors). When testing supernatants from human neutrophils, the assay was performed in the presence of 20 µM neutrophil elastase inhibitor (Elastase Inhibitor IV, Calbiochem, Darmstadt, Germany).
Neutrophils were isolated from fresh blood from healthy donors, via density gradient centrifugation as described. To obtain neutrophil degranulate, neutrophils were suspended in degranulation buffer (120 mM NaCl, 15 mM CaCl2, 20 mM Tris/HCl pH 7.5) at a concentration of 10^7 cells/mL and degranulation was induced by incubating neutrophils with N-formyl-methionyl-leucyl-phenylalanine (fMLF) (final concentration 0.5 µM) for 20 min at 37 °C as previously described. Next, the supernatant was collected by centrifugation. For fresh blood donations, all subjects gave written informed consent in accordance with the Declaration of Helsinki.

Another series concerns the target T1, MMP-3 (Homo sapiens, UniProt P08254).
T1 construct: purchased R & D systems; host or cells: NS0 cells
The series is described as follows: MMP-3 OmniMMP peptide assay. Type of series: biochemical. The note with it: OmniMMP substrate peptide. The method, then: Compounds 5 and 7 were synthesized as previously reported. Full-length human proMMP-9 was produced by recombinant expression in Sf9 insect cells and purified by gelatin-Sepharose chromatography as previously described. Stable full-length proMMP-9 monomers and trimers were separated by glycerol gradient ultracentrifugation as previously described. ProMMP-9 mixture and the separated monomers and trimers were activated by incubation with the catalytic domain of MMP-3 (cat. No. 444217, Merck Millipore, Darmstadt, Germany) as previously described. […] ADAM17/TACE (Sf 21 (baculovirus)-derived, R & D systems, Minneapolis, MO, USA) was diluted and evaluated in 25 mM Tris, 2.5 μM ZnCl2, 0.005% Brij-35, pH 9.0. All stocks of the compounds were evaluated for the presence of endotoxin using the EndoZyme II assay (Hyglos bioMérieux, Bernried am Starnberger See, Germany). […]
To determine the inhibition of gelatinolytic activity, we used a previously optimized gelatin degradation assay. […] Next, dye-quenched gelatin (DQ™-gelatin, Invitrogen, Carlsbad, CA, USA) was added at a final concentration of 2.5 µg/mL and the increase in fluorescence over time was measured with the CLARIOstar microplate reader (BMG Labtech, Ortenberg, Germany). […]

Series [2] is described as follows: Ex vivo stability in mouse blood (remaining MMP-9 inhibitory activity). Type of series: in vitro ADME. The following applies: 500 µM in freshly isolated mouse blood, 37 °C; plasma and cell lysates. The method, then:
Toxicity of compounds 5 and 7 was evaluated in vitro on the U-87 cell line. Briefly, U-87 cells were seeded in 96-well plates (cat. No. 92096, TPP Techno Plastic Products, Trasadingen, Switzerland) at 2000 cells/well in DMEM FluoroBrite containing 10% FBS and incubated for 24 h. Cells were washed and further grown in DMEM FluoroBrite with 5% KnockOut™ Serum Replacement (Gibco, Waltham, MA, USA). Compounds 5 and 7 were added to the wells in a 1:2 dilution series starting at 20 µM and ending at 0.16 µM. To evaluate the effect of the compound on cell growth, confluence was determined every hour for 17h using the Incucyte® S3 Live-Cell Analysis System (Sartorius, Göttingen, Germany). Next, cells were stained with the LIVE/DEAD™ Viability/Cytotoxicity Kit for mammalian cells (Invitrogen, Carlsbad, CA, USA; cat. # L3224) and cell viability was evaluated. Data were normalized to the mean confluence of wells containing no inhibitors. To measure the stability of the compounds, fresh blood was collected from heathy mice by cardiac puncture with a heparin-coated needle and syringe and 30UI/mL heparin was added. Next, compound 5, compound 7 or vehicle (DMSO) was added to the blood at a final concentration of 500 µM and incubated at 37 °C. […] Background inhibition was subtracted and results were expressed as percentage inhibition.

T1 sequence (P08254 100-477): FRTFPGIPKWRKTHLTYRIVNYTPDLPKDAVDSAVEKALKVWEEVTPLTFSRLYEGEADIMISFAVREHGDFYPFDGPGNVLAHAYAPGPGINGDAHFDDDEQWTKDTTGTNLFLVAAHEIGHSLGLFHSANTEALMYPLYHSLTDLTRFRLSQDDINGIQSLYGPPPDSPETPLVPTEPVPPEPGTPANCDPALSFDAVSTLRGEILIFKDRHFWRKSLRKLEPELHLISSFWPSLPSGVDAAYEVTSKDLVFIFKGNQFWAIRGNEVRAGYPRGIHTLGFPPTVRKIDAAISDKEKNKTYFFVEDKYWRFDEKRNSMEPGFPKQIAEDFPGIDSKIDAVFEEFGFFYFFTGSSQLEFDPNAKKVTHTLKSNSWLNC

Turning to `CC(C)[C@H](C(=O)O)N(CCNC(=O)c1ccccc1)S(=O)(=O)c1ccc(-c2ccccc2)cc1` [Compound 5], the “inhibition of metalloproteinase-derived gelatinolytic signal” value in series [1] is given as “approximately 30%”. Besides, the half-inhibitory concentration (IC50) at MMP-3 is 0.965 µM. Moreover, in series [2], the “ex vivo stability: remaining MMP-9 inhibitory activity” value is listed as “remained detectable up to 24h later”.
As to `CC(C)[C@H](C(=O)O)N(CCNC(=O)c1cccc(C(=O)NCCN([C@@H](C(=O)O)C(C)C)S(=O)(=O)c2ccc(-c3ccccc3)cc2)c1)S(=O)(=O)c1ccc(-c2ccccc2)cc1` [Compound 7], the “inhibition of metalloproteinase-derived gelatinolytic signal, first inhibition plateau” value in series [1] (around a concentration of 1 µM) was “approximately 30%”. In addition, the “inhibition of metalloproteinase-derived gelatinolytic signal” value in series [1] is “almost complete inhibition”. Besides, the IC50 against MMP-3 turned out to be 0.0077 µM. For the same compound, in series [2], the “ex vivo stability: remaining MMP-9 inhibitory activity” value is “remained detectable up to 24h later”.

For orientation: IC50 means the concentration that inhibits the measured activity by half. Read a high IC50 as weaker potency in that assay.
